According to the METLIN SMRT retention time set (Domingo-Almenara et al. 2019):

Assay: gradient 5% acetonitrile 3 min, to 50% in 2 min, to 85% in 15 min, held 3 min, 100 µL/min
Conditions: column: Zorbax Extend-C18 2.1 x 50 mm; eluents: water / acetonitrile, 0.1% formic acid
Procedure, shortened: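 Using water and acetonitrile that each contained 0.1% formic acid, mixtures of ~100 pure standards were separated at 100 μL/min on a Zorbax Extend-C18 column (2.1 × 50 mm, 1.8 μm). The HPLC fed a quadrupole time-of-flight mass spectrometer working in positive and negative ionization mode, with dead and dwell volumes of 40 μL and 900 μL. Data were acquired over 3 months. Retention time was read from computationally picked adduct peaks after manual inspection of each.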

| SMILES | RP-LC retention time [s] |
| --- | --- |
| Cc1cc(-c2nnc(-c3ccccc3)o2)c(C)n1CC(=O)NCc1cccs1 | 900 |
| Cc1ccccc1NC(=O)Nc1c(-c2ccccc2)nc2ccccn12 | 661 |
| Cc1nc(N2CCOCC2)c2c(C(=O)NCCCc3ccccc3)c(C)oc2n1 | 805 |
| CNC(=O)C1(C)CC(c2ccccc2)=NO1 (centres undefined) | 693 |
| Cc1ccc(-c2nnc(-c3nn(C)c4c3CN(S(=O)(=O)c3cc(F)ccc3C)CC4)o2)cc1 | 1050 |
| COc1ccc(Cn2nc3c(S(=O)(=O)N4CCc5ccccc5C4)cccn3c2=O)cc1F | 945 |
| COc1ccc(-c2csc(C)n2)cc1S(=O)(=O)N(C)c1ccc(C)cc1 | 1040 |
| CCOC(=O)C(CC)n1cnc2c(cnn2-c2ccccc2)c1=O (centres undefined) | 857 |
| CN1C(=O)c2cc(S(=O)(=O)Nc3cccc(Cl)c3)ccc2Oc2cccnc21 | 952 |
| Cc1cccc(C)c1OCC(N)C(C)C (centres undefined) | 728 |
| Cc1nc2cc(-c3noc(-c4nn(C)c5ccccc45)n3)ccc2o1 | 1040 |
| CC(C)(C)c1ccc(NC(=O)N2CCN(CCNC(=O)c3cccs3)CC2)cc1 | 616 |
| CC(COc1ccccc1Cc1ccccc1)N1CCCCC1 (centres undefined) | 852 |
| CC(O)(CNC(=O)C(=O)Nc1cccc(N2CCCCC2=O)c1)c1ccccc1 (centres undefined) | 668 |
| Cc1cc(OCC(=O)NCc2ccc3c(c2)OCO3)nc(-c2ccc(F)cc2)n1 | 942 |
| COC(=O)c1ccc(NC(=O)C2=Cc3ccccc3OC=C2)cc1 | 1060 |
| Cc1cc(CNC(=O)C(=O)Nc2cc(Cl)ccc2C#N)c(C)o1 | 958 |
| CC(C(=O)Nc1ccc(Cl)cc1F)C1CCN(C(=O)Nc2ccc(Cl)cc2)CC1 (centres undefined) | 1020 |
| CC(C)CCNC(=O)C1(C)Cn2nc(C(=O)NC(C)c3ccccc3)cc2C(=O)N1C (centres undefined) | 778 |

| SMILES | RP-LC retention time [s] |
| --- | --- |
| Cc1cc(C)cc(NC2C=CS(=O)(=O)C2)c1 (centres undefined) | 760 |
| CN1C(=O)c2cccnc2Sc2cc(NC(=O)c3c(F)cccc3F)ccc21 | 754 |
| O=C(CCc1c(-c2ccccc2)nc2ccccn12)Nc1ccc(Br)cc1 | 725 |
| COc1ccc(C2(C(=O)N3CCCOCCNC(=O)[C@@H]4CCCC[C@@H]43)CC2)cc1 | 750 |
| Clc1ccc(CNc2c(-c3ccc4c(c3)OCCO4)nc3ncccn23)cc1 | 722 |
| CCOc1cccc(-c2noc(Cn3c(=O)n(Cc4cccc(OC)c4)c(=O)c4sccc43)n2)c1 | 1150 |
| CCCC(=O)Nc1cc2c(cc1N1CCC(C)CC1)n(C)c(=O)c(=O)n2C | 820 |
| COC(=O)c1cccc(C(=O)Nc2ccccc2C)n1 | 869 |
| COCCN1C(=O)CCc2cc(NS(=O)(=O)c3cc(C)cc(C)c3)ccc21 | 816 |
| COC(=O)c1c(-c2ccccc2)noc1NCc1cccc(OC)c1 | 677 |
| CN(C)CCC[C@@]1(c2ccc(F)cc2)OCc2cc(C#N)ccc21 | 724 |
| COc1cc(C2C(C(=O)N3CCOCC3)=C(C)NC3=C2C(=O)CCC3)ccc1OC(C)=O (centres undefined) | 622 |
| CCCONC(=O)Nc1ccccc1[N+](=O)[O-] | 787 |
| CCN(CC)C(=O)Cn1nc2cc(C)nc(-c3cccc(Cl)c3)n2c1=O | 790 |
| CCn1c(=O)c2cc(C(=O)NCc3cc(C)ccc3C)nn2c2ccccc21 | 930 |
| CCn1nc(C)c(-c2cc(C(=O)N3CCCCCCNC(=O)[C@@H]4CCCC[C@@H]43)no2)c1C | 834 |
| O=C(CN1c2ccc(F)cc2-c2ccccc2S1(=O)=O)Nc1ccc(F)cc1 | 948 |
| CS(=O)(=O)N1CCCC1C(=O)N1CCCC1 (centres undefined) | 584 |
| Cn1nc2c(c1NC(=O)COc1ccc(Cl)cc1Cl)CCC2 | 815 |

| SMILES | RP-LC retention time [s] |
| --- | --- |
| Cc1nc(-n2cccc2)sc1C(=O)NCCn1nc(-c2ccco2)ccc1=O | 710 |
| O=C(CN1C(=O)NC2(CCCCC2)C1=O)NCc1ccc2c(c1)OCO2 | 699 |
| CCOC(=O)/C(C#N)=C\c1c[nH]c2ccccc12 | 649 |
| COC(=O)c1ccc(C2Nc3ccc(OC)cc3[C@H]3OCCC[C@@H]23)cc1 (some centres undefined) | 1020 |
| CCOc1ccc(N2C(=O)C3N=NN(Cc4nc(-c5ccccc5)no4)C3C2=O)cc1 (centres undefined) | 885 |
| Cn1cc2c3c(cccc31)CN(C(=O)c1ccccc1Br)CC2 | 968 |
| CCc1noc(NC(C)=O)c1-c1ccc(C)c(S(=O)(=O)NCCC(C)C)c1 | 856 |
| CCc1ccc(NC(=O)c2cc(CC)n3nccc3n2)cc1 | 1140 |
| CCOc1ccc(-c2[nH]ncc2CN2CCC3(CC2)CC(C)(O)CCO3)cc1 (centres undefined) | 596 |
| COc1ccc(N2CCN(C(=O)CCc3nnc4c5cc(-c6ccccc6)nn5ccn34)CC2)cc1 | 730 |
| COc1ccc(N2CC(c3noc(-c4ccc5c(c4)OCO5)n3)CC2=O)cc1OC (centres undefined) | 770 |
| O=c1[nH]cc(S(=O)(=O)N2CCOCC2)c(=O)[nH]1 | 546 |
| CC(C)(C)N(Cc1ccc2c(c1)OCO2)C(=O)/C=C\S(=O)c1ccccc1 (centres undefined) | 902 |
| O=c1n(Cc2ccc(F)cc2)nc2c(S(=O)(=O)N3CCN(c4ccc(F)cc4)CC3)cccn12 | 991 |
| Brc1ccc(-c2noc(Cc3nnc(-c4ccccc4)o3)n2)cc1 | 1110 |
| CCOC(=O)c1nc(Nc2cc(C)ccc2C)c2ccccc2n1 | 870 |
| CC(C)CNS(=O)(=O)c1cc(-c2nc(CC(C)C)cs2)cs1 | 1170 |
| Cc1ccc(CC(=O)Nc2cc(-c3ccc(C)s3)no2)cc1 | 1050 |

Now from value to molecule:

| RP-LC retention time [s] | SMILES |
| --- | --- |
| 1050 | Cc1ccc2c(c1)N(S(C)(=O)=O)CCC(C(=O)NC1CCCCCCC1)O2 (centres undefined) |
| 731 | Cc1noc(C)c1CCNC(=O)c1ccc2ccnc(N3CCN(c4ccc(F)cc4)CC3)c2c1 |
| 849 | CC1CCCN(c2ccn3c(=O)n(CC(=O)Nc4cc(F)cc(F)c4)nc3n2)C1 (centres undefined) |
| 1180 | Cc1cc(Cl)ccc1OCc1nc(-c2ccc(NS(=O)(=O)c3cccs3)cc2)no1 |
| 658 | CCc1nncn1C1CCN(S(=O)(=O)c2cc(F)ccc2C)CC1 |
| 572 | O=C(CCN1C(=O)C2C3C=CC(C3)C2C1=O)N1CCN(c2ccccn2)CC1 (centres undefined) |
| 761 | O=C(Nc1ccccc1F)C1CCc2sc(C(=O)N3CCCC3)cc2C1 (centres undefined) |
| 579 | O=S(=O)(NC1CCCN(c2cc(-c3ccncc3)[nH]n2)C1)c1ccc(Cl)cc1 (centres undefined) |
| 690 | CC(C)c1noc(C2CCCN(C(=O)NC(C)(C)C)CCC(=O)NCC2)n1 (centres undefined) |
| 720 | CCn1cnc(S(=O)(=O)N2CCC(C(=O)NCc3ccccc3Cl)CC2)c1 |
| 672 | CCNc1cc(N2CCCC(CCC(=O)NCc3ccccc3C)C2)ncn1 (centres undefined) |
| 585 | Cn1cnc2ccc(-c3noc(CNC(=O)c4cccs4)n3)cc21 |
| 681 | CCC1CCCCN1C(=O)c1cnc2nc(C)ccc2c1Nc1ccc(C(=O)OC)cc1 (centres undefined) |
| 585 | COCCCNC(=O)C1CCN(c2nc3ccc(-c4cccnc4)nc3s2)CC1 |
| 919 | CCn1c(=O)c(N2CCN(C(=O)NC3CCCCC3)CC2)nc2ccccc21 |
| 965 | C[C@@H]1CN(C(=O)c2cccs2)C[C@H]1c1nc(-c2ccccc2)no1 |
| 970 | Cn1nc(-c2nnc(-c3ccc(F)cc3)o2)c2c1CCN(S(=O)(=O)Cc1ccccc1Cl)C2 |

| RP-LC retention time [s] | SMILES |
| --- | --- |
| 750 | O=C(NCc1ccc(F)cc1F)C1CC(=O)N(c2ccc3c(c2)CCN3C(=O)C2CC2)C1 (centres undefined) |
| 755 | Cc1nc(N2CCN(c3ccccn3)CC2)nc2c1C(=O)CC(c1ccc(F)cc1)C2 (centres undefined) |
| 706 | Cc1ccc(Sc2nccnc2N2CCC(C(=O)N3CCN(c4ccccn4)CC3)CC2)cc1 |
| 716 | CC1=C(c2ccc(F)cc2)S(=O)(=O)N=C1N1CCC(NC(=O)C2CCCO2)CC1 (centres undefined) |
| 859 | CCc1ccc(C2=C(C)C(N3CCCN(C(=O)c4ccsc4)CC3)=NS2(=O)=O)cc1 |
| 627 | O=C(CN1C(=O)C2CCCCN2c2ccc(C(=O)N3CCCC3)cc21)NCC1COCCO1 (centres undefined) |
| 729 | Cc1ccc(-n2cc3c(N4CCCC(C(=O)NCc5ccc(F)cc5F)C4)ncnc3n2)cc1 (centres undefined) |
| 970 | CCc1cccc(NC(=O)N2CCCC2c2nc(-c3ccccc3OC)no2)c1 (centres undefined) |
| 623 | O=C(Nc1ccccc1-c1nc2ccccc2[nH]1)C1CC1 |
| 893 | CCCn1nc2ccc(S(=O)(=O)N3CCC(C)CC3)cn2c1=O |
| 558 | O=C(Nc1nccs1)C1CCN(C(=O)c2ccc[nH]c2=O)CC1 |
| 893 | O=C(Nc1ccccn1)C1CCN(S(=O)(=O)c2cc(-c3noc(C4CCC4)n3)cs2)CC1 |
| 866 | O=C(NCCc1csc(-c2ccccc2)n1)C1CCN(C(=O)Cc2ccc(Cl)cc2)CC1 |
| 700 | O=C(NCc1ccc(F)cc1F)C1CCCN(c2ncnc3nn(-c4ccc(F)cc4)cc23)C1 (centres undefined) |
| 1070 | CCc1nc(-c2csc(S(=O)(=O)N3CCCC(C(=O)Nc4ccc(C)cc4C)C3)c2)no1 (centres undefined) |
| 787 | O=C(Nc1cc(F)c2nc(N3CCOCC3)ccc2c1)c1cccs1 |
